SMILES strings stand for the structures.

The values that follow come from patent US12552824B2, “C-mannoside compounds useful for the treatment of urinary tract infections” (GLAXOSMITHKLINE INTELLECTUAL PROPERTY DEVELOPMENT LIMITED, priority 2018, dated 2026).

For one data set, the target named is T1, FimH (Escherichia coli, UniProt Q1R2J4).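 Also: concentration in nM.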
T1 construct: endogenous in cells; host or cells: E. coli UTI89 whole bacteria, agglutinating guinea pig red blood cells
In kind it is cell-based. Conditions: concentration reducing bacterial agglutination of guinea pig red blood cells by greater than 90%; UTI89 bacteria. Here is the method: Hemagglutination Inhibition Assay (HAI)
The hemagglutination inhibition (HAI) assay was performed with UTI89 bacteria and guinea pig red blood cells, as previously described (S. J. Hultgren, W. R. Schwan, A. J. Schaeffer, J. L. Duncan Infect. Immun. 1986, 54, 613-620 and Jarvis, C.; Han, Z.; Kalas, V.; Klein, R.; Pinkner, J. S.; Ford, B.; Binkley, J.; Cusumano, C. K.; Cusumano, Z.; Mydock-McGrane, L.; Hultgren, S. J.; Janetka, J. W., ChemMedChem 2016, 11, 367-373).

Data set [1] can be described thus: Rat pharmacokinetics: IV infusion 1 mg/kg, then PO 5 mg/kg; blood and urine by LC-MS/MS. In kind it is in vivo, Male Wistar Han rats. Conditions: for bioavailability: male, Wistar Han; for bioavailability / AUC: whole blood; for bioavailability / % F: oral bioavailability, ratio of dose-normalised AUC PO (5 mg/kg) and IV infusion (1 mg/kg); for Ue % po: percentage of oral dose (5 mg/kg) eliminated unchanged in urine; for AUC: area under blood concentration-time profile, PO 5 mg/kg, male Wistar Han rats, n = 3. An excerpt: General Assays for Obtaining AUC Oral h*μm, % F, and Ue % PO Values
Male Wistar Han rats were purchased from Vital River Laboratory Animal Technology Co. Ltd (Beijing, China). The animals were approx. 6-8 weeks old with body weights of 200-300 g on the dosing date. The animals were housed in a 12-hour light/12-hour dark cycle environment and had free access to food and water. All animals were fed prior to dosing. Studies were approved by the Pharmaron Institutional Animal Care and Use Committee (IACUC).
Test article was administered as an intravenous infusion for 1 hour (1 mg/kg) at 5 mL/kg/h. After 48 h, animals received a single oral dose (5 mg/kg, free form) at a dose volume of 10 mL/kg, respectively. Blood samples were collected at various time points after IV infusion and PO administrations. Urine samples were collected at various time points after IV infusion and PO administrations.
Test article was dissolved in DMSO with vortexing and sonification to obtain a stock solution. An aliquot of the stock solution was mixed with 10% HP-β-CD in saline with vortexing to obtain a solution with concentration at 0.2 mg/mL of test article.
Test article was added into 1% Methyl Cellulose with vortexing and sonication to obtain a homogeneous suspension with concentration at 0.5 mg/mL of test article.
For IV infusion (1 mg/kg) administration, blood samples were collected from each animal at 0, 0.25, 0.5, 0.75, 1, 1.08, 1.25, 1.5, 1.75, 2, 3, 5, 8, 12, 24 hour post-dose.
For PO (5 mg/kg) administration, blood samples were collected from each animal at 0, 0.25, 0.5, 1, 1.5, 2, 3, 4, 6, 8, 12, 24 hour post-dose.
Blood samples (50 μL) were collected from each animal via jugular vein. These blood samples were placed into tubes containing K2EDTA. Whole blood was mixed with same volume of water and inverted several times. The blood samples were stored at −75±15° C. until analysis.
For IV infusion (1 mg/kg) administration, urine samples were collected from each animal at 0-4, 4-8, 8-12, 12-24 hour post-dose.
For PO (5 mg/kg) administration, urine samples were collected from each animal at 0-4, 4-8, 8-12, 12-24 hour post-dose.
Urine samples were collected continuously into containers maintained over dry ice at the intervals outlined below and stored at −80° C. prior to analysis.
55 μL of standards, 55 μL of QC samples or 55 μL of unknown samples (50 μL of blood or urine with 5 μL 50% acetonitrile) were mixed to 200 μL of acetonitrile containing IS (dexamethasone) to precipitate proteins. Then the samples were vortexed for 30 sec. After centrifugation at 4° C., 4700 rpm for 30 min, and 5 μL of the supernatant was injected into the LC-MS/MS system for quantitative analysis.
Test article blood and urine concentrations for each animal following IV infusion at 1 mg/kg and PO at 5 mg/kg were used to calculate pharmacokinetic parameters by employing a non-compartmental analysis (Phoenix™ WinNonlin® 7.0). The linear trapezoidal algorithm was used for AUC calculation.

Turning to `Cc1cc(-c2cc(F)c(C)c(F)c2)ccc1[C@@H](O)[C@H]1O[C@H](CO)[C@@H](O)[C@H](O)[C@@H]1O` [Example 1, (2R,3S,4S,5S,6R)-2-((R)-(3′,5′-Difluoro-3,4′-dimethyl-[1,1′-biphenyl]-4-yl)(hydroxy)methyl)-6-(hydroxymethyl)tetrahydro-2H-pyran-3,4,5-triol], the “HAI titer EC > 90” value at FimH is ““++++” (<50 “++++”)”. In data set [1], the bioavailability is 10 to 30%, the Ue % po result is ““++” (0.5 <= x <= 5%)” and the AUC was less than 0.5 µM·h.

Turning to `Cc1cc(-c2cc(F)c(Cl)c(F)c2)ccc1[C@@H](O)[C@H]1O[C@H](CO)[C@@H](O)[C@H](O)[C@@H]1O` [Example 2, (2R,3S,4S,5S,6R)-2-((R)-(4′-Chloro-3′,5′-difluoro-3-methyl-[1,1′-biphenyl]-4-yl)(hydroxy)methyl)-6-(hydroxymethyl)tetrahydro-2H-pyran-3,4,5-triol], at FimH, the “HAI titer EC > 90” value is given as ““++++” (<50 “++++”)”. Moreover, in data set [1], the bioavailability lay in the range of 10 to 30%, the Ue % po result is ““++” (0.5 <= x <= 5%)” and the AUC was more than 1 µM·h.

In the case of `Cc1cc(-c2cc(F)c(Br)c(F)c2)ccc1[C@@H](O)[C@H]1O[C@H](CO)[C@@H](O)[C@H](O)[C@@H]1O` [Example 3, (2R,3S,4S,5S,6R)-2-((R)-(4′-Bromo-3′,5′-difluoro-3-methyl-[1,1′-biphenyl]-4-yl)(hydroxy)methyl)-6-(hydroxymethyl)tetrahydro-2H-pyran-3,4,5-triol], the “HAI titer EC > 90” value on FimH is on record as ““++++” (<50 “++++”)”. In addition, in data set [1], the bioavailability was 10 to 30%, the Ue % po result is recorded as ““++” (0.5 <= x <= 5%)” and the AUC was more than 1 µM·h.

Take `C=Cc1c(F)cc(-c2ccc([C@@H](O)[C@H]3O[C@H](CO)[C@@H](O)[C@H](O)[C@@H]3O)c(C)c2)cc1F` [Example 4, (2R,3S,4S,5S,6R)-2-((R)-(3′,5′-Difluoro-3-methyl-4′-vinyl-[1,1′-biphenyl]-4-yl)(hydroxy)methyl)-6-(hydroxymethyl)tetrahydro-2H-pyran-3,4,5-triol]: the “HAI titer EC > 90” value at FimH is given as ““++++” (<50 “++++”)”. Further, in data set [1], the bioavailability fell in the range of 10 to 30%, the Ue % po entry was ““++” (0.5 <= x <= 5%)” and the AUC is less than 0.5 µM·h.

Take `Cc1cc(-c2ccc(C(F)(F)F)c(F)c2)ccc1[C@@H](O)[C@H]1O[C@H](CO)[C@@H](O)[C@H](O)[C@@H]1O` [Example 5, (2R,3S,4S,5S,6R)-2-((R)-(3′-Fluoro-3-methyl-4′-(trifluoromethyl)-[1,1′-biphenyl]-4-yl)(hydroxy)methyl)-6-(hydroxymethyl)tetrahydro-2H-pyran-3,4,5-triol]: the “HAI titer EC > 90” value at FimH is ““++++” (<50 “++++”)”. For the same compound, in data set [1], the bioavailability was in the range of 10 to 30%, the Ue % po result is ““++” (0.5 <= x <= 5%)” and the AUC was in the range of 0.5 to 1 µM·h.

With `Cc1cc(-c2cc(F)cc(C(F)(F)F)c2)ccc1[C@@H](O)[C@H]1O[C@H](CO)[C@@H](O)[C@H](O)[C@@H]1O` [Example 6, (2R,3S,4S,5S,6R)-2-((R)-(3′-Fluoro-3-methyl-5′-(trifluoromethyl)-[1,1′-biphenyl]-4-yl)(hydroxy)methyl)-6-(hydroxymethyl)tetrahydro-2H-pyran-3,4,5-triol], the “HAI titer EC > 90” value at FimH is given as ““++++” (<50 “++++”)”. Moreover, in data set [1], the bioavailability is 10 to 30%, the Ue % po entry was ““++” (0.5 <= x <= 5%)” and the AUC is less than 0.5 µM·h.

On to `Cc1cc(-c2cc(F)c(F)c(F)c2)ccc1[C@@H](O)[C@H]1O[C@H](CO)[C@@H](O)[C@H](O)[C@@H]1O` [Example 7, (2R,3S,4S,5S,6R)-2-((R)-Hydroxy(3′,4′,5′-trifluoro-3-methyl-[1,1′-biphenyl]-4-yl)methyl)-6-(hydroxymethyl)tetrahydro-2H-pyran-3,4,5-triol], for which the “HAI titer EC > 90” value on FimH was ““++++” (<50 “++++”)”. For the same compound, in data set [1], the bioavailability is more than 30%, the Ue % po result is ““+++” (>5%)” and the AUC was more than 1 µM·h.

`OC[C@H]1O[C@H]([C@H](O)c2ccc(-c3cc(F)cc(F)c3)cc2C(F)(F)F)[C@@H](O)[C@@H](O)[C@@H]1O` [Example 8, (2R,3S,4S,5S,6R)-2-((R)-(3′,5′-Difluoro-3-(trifluoromethyl)-[1,1′-biphenyl]-4-yl)(hydroxy)methyl)-6-(hydroxymethyl)tetrahydro-2H-pyran-3,4,5-triol]: on FimH, the “HAI titer EC > 90” value is ““++++” (<50 “++++”)”. Besides, in data set [1], the bioavailability is more than 30%, the Ue % po result is listed as ““++” (0.5 <= x <= 5%)” and the AUC was less than 0.5 µM·h.

On to `Cc1cc(-c2cc(F)cc(F)c2)ccc1[C@@H](O)[C@H]1O[C@H](CO)[C@@H](O)[C@H](O)[C@@H]1O` [Example 9, (2R,3S,4S,5S,6R)-2-((R)-(3′,5′-Difluoro-3-methyl-[1,1′-biphenyl]-4-yl)(hydroxy)methyl)-6-(hydroxymethyl)tetrahydro-2H-pyran-3,4,5-triol], for which, on FimH, the “HAI titer EC > 90” value is given as ““++++” (<50 “++++”)”. Moreover, in data set [1], the bioavailability was more than 30%, the Ue % po result is on record as ““+++” (>5%)” and the AUC was 0.5 to 1 µM·h.

As for `Cc1cc(F)c(-c2ccc([C@@H](O)[C@H]3O[C@H](CO)[C@@H](O)[C@H](O)[C@@H]3O)c(C)c2)cc1Cl` [Example 11], the “HAI titer EC > 90” value on FimH is listed as ““+++” (50-200 “+++”)”. In data set [1], the “% F” value was ““+++” (>30%)” and the Ue % po result was ““++” (0.5 <= x <= 5%)”.

`Cc1cc(-c2ccc(Cl)c(Cl)c2)ccc1[C@@H](O)[C@H]1O[C@H](CO)[C@@H](O)[C@H](O)[C@@H]1O` [Example 15]: on FimH, the “HAI titer EC > 90” value is ““++++” (<50 “++++”)”. Also, in data set [1], the “% F” value was ““++” (10 <= x <= 30%)” and the Ue % po entry is ““++” (0.5 <= x <= 5%)”.

In the case of `Cc1cc(-c2cc(Cl)cc(Cl)c2)ccc1[C@@H](O)[C@H]1O[C@H](CO)[C@@H](O)[C@H](O)[C@@H]1O` [Example 16], the “HAI titer EC > 90” value at FimH is on record as ““++++” (<50 “++++”)”. Moreover, in data set [1], the “% F” value is ““++” (10 <= x <= 30%)” and the Ue % po entry is listed as ““++” (0.5 <= x <= 5%)”.

Turning to `COc1cc(F)cc(-c2ccc([C@@H](O)[C@H]3O[C@H](CO)[C@@H](O)[C@H](O)[C@@H]3O)c(C)c2)c1` [Example 24], the “HAI titer EC > 90” value at FimH was ““++++” (<50 “++++”)”. Moreover, in data set [1], the “% F” value was ““++” (10 <= x <= 30%)” and the Ue % po entry was ““++” (0.5 <= x <= 5%)”.

As to `OC[C@H]1O[C@H]([C@H](O)c2c(F)cc(-c3cc(F)cc(F)c3)cc2C(F)(F)F)[C@@H](O)[C@@H](O)[C@@H]1O` [Example 32], on FimH, the “HAI titer EC > 90” value was ““++++” (<50 “++++”)”. Further, in data set [1], the “% F” value is ““++” (10 <= x <= 30%)” and the Ue % po entry is ““++” (0.5 <= x <= 5%)”.

With `COc1cc(-c2ccc([C@@H](O)[C@H]3O[C@H](CO)[C@@H](O)[C@H](O)[C@@H]3O)c(C)c2)cc(C(F)(F)F)c1` [Example 61], the “HAI titer EC > 90” value on FimH is given as ““++++” (<50 “++++”)”. Moreover, in data set [1], the “% F” value was ““++” (10 <= x <= 30%)” and the Ue % po entry was ““+” (<0.5%)”.

Consider `Cc1cc(-c2cc(F)c(C(F)(F)F)c(F)c2)ccc1[C@@H](O)[C@H]1O[C@H](CO)[C@@H](O)[C@H](O)[C@@H]1O` [Example 64], for which the “HAI titer EC > 90” value on FimH was ““++++” (<50 “++++”)”. In data set [1], the “% F” value is recorded as ““++” (10 <= x <= 30%)” and the Ue % po entry was ““++” (0.5 <= x <= 5%)”.

Usually bioavailability stands for the share of a dose that reaches the circulation, judged against a reference dose that is usually intravenous. The term AUC denotes concentration integrated over time. High values mean high exposure, low ones low exposure.
